Results from the NIST ThermoML archive (doi:10.1021/je7001368).

Assay: mn = molality of the nth substance listed, in mol/kg
Settings: 101 kPa, Liquid

O=C([O-])CC(O)(CC(=O)[O-])C(=O)[O-].[K+].[K+].[K+] [potassium citrate] + O
Settings	mass density [kg/m3]	speed of sound [m/s]
288.15 K, m1 = 0.0185	1002.99	1470.8
288.15 K, m1 = 0.0304	1005.44	1473.4
288.15 K, m1 = 0.031	1005.55	1473.5
288.15 K, m1 = 0.0558	1010.5	1478.6
288.15 K, m1 = 0.0899	1017.35	1485.7
288.15 K, m1 = 0.1258	1024.33	1493.8
288.15 K, m1 = 0.1931	1037.25	1506.5
288.15 K, m1 = 0.2653	1050.77	1519.9
288.15 K, m1 = 0.3412	1064.51	1534.3
288.15 K, m1 = 0.4565	1084.71	1556.7
288.15 K, m1 = 0.5796	1105.19	1578.4
288.15 K, m1 = 0.7446	1131.73	1608.1
293.15 K, m1 = 0.0185	1002.05	1486.7
293.15 K, m1 = 0.0304	1004.5	1489.1
293.15 K, m1 = 0.031	1004.61	1489.3
293.15 K, m1 = 0.0558	1009.51	1494.3
293.15 K, m1 = 0.0899	1016.3	1501.1
293.15 K, m1 = 0.1258	1023.23	1509
293.15 K, m1 = 0.1931	1036.06	1521.2
293.15 K, m1 = 0.2653	1049.48	1534.2
293.15 K, m1 = 0.3412	1063.13	1548.1
293.15 K, m1 = 0.4565	1083.21	1569.7
293.15 K, m1 = 0.5796	1103.58	1590.6
293.15 K, m1 = 0.7446	1129.91	1619.4
298.15 K, m1 = 0.0185	1000.87	1500.8
298.15 K, m1 = 0.0304	1003.29	1503.2
298.15 K, m1 = 0.031	1003.4	1503.3
298.15 K, m1 = 0.0558	1008.27	1508.1
298.15 K, m1 = 0.0899	1015.02	1514.7
298.15 K, m1 = 0.1258	1021.9	1522.4
298.15 K, m1 = 0.1931	1034.64	1534.3
298.15 K, m1 = 0.2653	1047.99	1546.8
298.15 K, m1 = 0.3412	1061.56	1560.2
298.15 K, m1 = 0.4565	1081.54	1581.2
298.15 K, m1 = 0.5796	1101.81	1601.3
298.15 K, m1 = 0.7446	1128.11	1629.2
303.15 K, m1 = 0.0185	999.449	1513
303.15 K, m1 = 0.0304	1001.86	1515.4
303.15 K, m1 = 0.031	1001.97	1515.5
303.15 K, m1 = 0.0558	1006.81	1520.2
303.15 K, m1 = 0.0899	1013.52	1526.6
303.15 K, m1 = 0.1258	1020.35	1534.1
303.15 K, m1 = 0.1931	1033.03	1545.6
303.15 K, m1 = 0.2653	1046.31	1557.7
303.15 K, m1 = 0.3412	1059.82	1570.7
303.15 K, m1 = 0.4565	1079.71	1591.1
303.15 K, m1 = 0.5796	1099.9	1610.6
303.15 K, m1 = 0.7446	1126.1	1637.7
308.15 K, m1 = 0.0185	997.814	1523.6
308.15 K, m1 = 0.0304	1000.21	1525.9
308.15 K, m1 = 0.031	1000.32	1526.1
308.15 K, m1 = 0.0558	1005.14	1530.6
308.15 K, m1 = 0.0899	1011.81	1536.8
308.15 K, m1 = 0.1258	1018.62	1544.2
308.15 K, m1 = 0.1931	1031.24	1555.3
308.15 K, m1 = 0.2653	1044.46	1567.1
308.15 K, m1 = 0.3412	1057.91	1579.7
308.15 K, m1 = 0.4565	1077.72	1599.7
308.15 K, m1 = 0.5796	1097.85	1618.5
308.15 K, m1 = 0.7446	1123.97	1644.9
313.15 K, m1 = 0.0185	995.982	1532.7
313.15 K, m1 = 0.0304	998.37	1534.9
313.15 K, m1 = 0.031	998.478	1535
313.15 K, m1 = 0.0558	1003.28	1539.5
313.15 K, m1 = 0.0899	1009.92	1545.5
313.15 K, m1 = 0.1258	1016.7	1552.8
313.15 K, m1 = 0.1931	1029.28	1563.6
313.15 K, m1 = 0.2653	1042.44	1575
313.15 K, m1 = 0.3412	1055.86	1587.3
313.15 K, m1 = 0.4565	1075.6	1606.9
313.15 K, m1 = 0.5796	1095.67	1625.1
313.15 K, m1 = 0.7446	1121.72	1650.8
